The values that follow are results of earlier work, collected in patent US11672863B2, “Enhanced solubility drug-containing formulations” (United Therapeutics Corporation, priority 2017, dated 2023).

Structures can show the parent of a compound that is named as a salt.

For this data set the following is noted: in water between pH 1.8 and 6.

As for `CCCCN1CCCCC1C(=O)Nc1c(C)cccc1C` (stereo not shown) [bupivacaine hydrochloride monohydrate], the solubility is 40 to 50 mg/mL.
